According to patent publication US20110183978A1, “Phenylpyri(mi)dinylazoles” (Bayer CropScience AG, priority 2009, published 2011):
Like-named read-outs stand apart in the source and are kept apart here.

What was measured:
[1] = system: Botrytis cinerea; assay: Example B: in vivo test on Botrytis cinerea (grey mould on cucumbers); settings: cucumber plants sprayed 24 hours before inoculation, scored after 5-7 days, read-out: % Wirkungsgrad
Procedure: In Vivo Test on Botrytis Cinerea (Grey Mould on Cucumbers) An aqueous suspension of the active substance was prepared by homogenization of a mixture of acetone/Tween/dimethyl sulphoxide and subsequent dilution with water to the desired concentration. Cucumber plants (variety: Vert petit de Paris) are sown in cultivation dishes on a peat-pozzolanic earth substrate (50/50) at 18-20° C. and sprayed at the cotyledon stage Z11 with the aqueous suspension described above. As a control, plants are sprayed with an aqueous solution with no active substance. […] The spores are derived from a 15 day-old culture which are suspended in the following nutrient solution: • 20 g/l gelatine • 50 g/l D-fructose • 2 g/l NH4NO3 • 1 g/l KH2PO4 The inoculated cucumber plants are kept for 5-7 days in a climatic chamber at […] After 5-7 days they are scored in comparison with the control plants.

[2] = system: Mycosphaerella graminicola; assay: Example G: in vivo test on Mycosphaerella graminicola (wheat leaf blotch disease); settings: Zymoseptoria tritici, wheat plants sprayed 24 hours before inoculation, scored after 21 to 28 days, read-out: % Wirkungsgrad
Procedure: In Vivo Test on Mycosphaerella Graminicola (Wheat Leaf Blotch Disease) An aqueous suspension of the active substance was prepared by homogenization of a mixture of acetone/Tween/dimethyl sulphoxide and subsequent dilution with water to the desired concentration. Wheat plants (variety: Scipion) are sown in cultivation dishes on a peat-pozzolanic earth substrate (50/50) at 12° C. and sprayed at the first-leaf stage (10 cm size) with the aqueous suspension described above. As a control, plants are sprayed with an aqueous solution with no active substance. After 24 hours the plants are inoculated by spraying with an aqueous suspension of Mycosphaerella graminicola spores (500,000 spores per ml). The spores are derived from a 7 day-old culture. […] After 21 to 28 days they are scored in comparison with the control plants.

[3] = physchem
[4] = system: Rhizoctonia solani; assay: Example W: in vivo test on Rhizoctonia solani (sheath blight in rice/protective); settings: 96 h, rice, protective, 250 ppm active substance, assessed 4 days after inoculation, read-out: % Activity level
Procedure: Solvent: 28.5 parts by weight acetone Emulsifier: 1.5 parts by weight alkylaryl polyglycol ethers For the preparation of a suitable active substance preparation, 1 part by weight of active substance is mixed with the stated quantities of solvent and emulsifier and the concentrate is diluted to the desired concentration with water. For the testing for protective activity, young rice plants are sprayed with the active substance preparation at the stated application dosage. One day after the treatment, the plants are inoculated with hyphae of Rhizoctonia solani. […] 4 days after the inoculation, the assessment takes place.

[5] = system: Fusarium proliferatum; assay: Example I: production of fumonisin FB1 by Fusarium proliferatum (microtitre plates); type: cell-based; settings: 120 h
[6] = system: Fusarium graminearum; assay: microbe, parasite or virus in culture; type: cell-based
[7] = system: Aspergillus parasiticus; assay: microbe, parasite or virus in culture; type: cell-based; settings: 168 h
[8] = system: Sphaerotheca fuliginea; assay: Example L: in vivo test on Sphaerotheca fuliginea (powdery mildew on cucumber/protective); settings: Podosphaera fuliginea, 168 h, cucumber, protective, assessment 7 days after inoculation, read-out: % Wirkungsgrad
How it was run: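 Young cucumber plants sprayed at stated dosage with compound in DMF/alkylaryl polyglycol ether emulsifier diluted in water; inoculated with S. fuliginea spores one day later. Kept in greenhouse at 70% relative humidity, 23° C; protective activity assessed 7 days after inoculation.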

[9] = system: Alternaria solani; assay: Example M: in vivo test on Alternaria solani (leaf blotch disease/tomato/protective); settings: 168 h, tomato, protective, 500 ppm active substance, assessed 7 days after inoculation, read-out: % Wirkungsgrad (activity level)
How it was run: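 Alternaria solani infection on tomato scored 7 days post-inoculation. Before inoculation, young plants received a protective spray at the stated application dose; formulation was compound mixed with N,N-dimethylformamide and emulsifier, water-diluted.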

[10] = system: Botrytis cinerea; assay: Example P: in vivo test on Botrytis cinerea (gray mould on bean/protective); settings: 48 h, bean, protective, 250 ppm active substance, assessed 2 days after inoculation, read-out: % Wirkungsgrad (activity level)
How it was run: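 Infection blotch size on leaves was scored 2 days after placing 2 Botrytis-colonised agar pieces per leaf. Inoculation followed drying of a protective spray applied to young plants at the stated dosage. Spray was prepared by diluting compound with solvent and alkylaryl polyglycol ether emulsifier in water.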

[11] = system: Fusarium graminearum; assay: whole plant or invertebrate; type: in vivo; settings: in Hordeum vulgare, 120 h, read-out: % Wirkungsgrad (activity level)
[12] = system: Venturia inaequalis; assay: Example O: in vivo test on Venturia inaequalis (apple scab/protective); settings: 240 h, protective, assessment 10 days after inoculation, read-out: % Wirkungsgrad
How it was run: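 Young plants received a preventive spray of compound formulated as an emulsifier-containing aqueous dilution at the given application rate, then were inoculated with apple scab fungus. Disease was scored 10 days post-inoculation.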

[13] = system: Septoria tritici; assay: Example R: in vivo test on Septoria tritici (leaf blotch in wheat/protective); settings: Zymoseptoria tritici, 504 h, wheat, protective, 1000 ppm active substance, assessed 21 days after inoculation, read-out: % Wirkungsgrad (activity level)
Procedure: Solvent: 49 parts by weight N,N-dimethylacetamide Emulsifier: 1 part by weight alkylaryl polyglycol ethers For the preparation of a suitable active substance preparation, 1 part by weight of active substance is mixed with the stated quantities of solvent and emulsifier and the concentrate is diluted to the desired concentration with water. For the testing for protective activity, young plants are sprayed with the active substance preparation at the stated application dosage. After drying of the spray coating, the plants are sprayed with a spore suspension of Septoria tritici. […] 21 days after the inoculation, the assessment takes place.

[14] = system: Fusarium nivale (var. majus); assay: whole plant or invertebrate; type: in vivo; settings: Microdochium nivale, in Triticum aestivum, 120 h, read-out: % Wirkungsgrad (activity level)
[15] = system: Leptosphaeria nodorum; assay: Example Q: in vivo test on Leptosphaeria nodorum (glume blotch in wheat/protective); settings: Parastagonospora nodorum, 192 h, wheat, protective, assessment 8 days after inoculation, read-out: % Wirkungsgrad
Procedure: Solvent: 49 parts by weight N,N-dimethylacetamide Emulsifier: 1 part by weight alkylaryl polyglycol ethers For the preparation of a suitable active substance preparation, 1 part by weight of active substance is mixed with the stated quantities of solvent and emulsifier and the concentrate is diluted to the desired concentration with water. For the testing for protective activity, young plants are sprayed with the active substance preparation at the stated application dosage. After drying of the spray coating, the plants are sprayed with spores with a spore suspension of Leptosphaeria nodorum. […] 8 days after the inoculation, the assessment takes place.

[16] = system: Plasmopara viticola; assay: Example N: in vivo test on Plasmopara viticola (downy mildew, vine/protective); settings: 144 h, vine, protective, assessment 6 days after inoculation, read-out: % Wirkungsgrad
Procedure: Emulsifier: 1 part by weight alkylaryl polyglycol ethers For the preparation of a suitable active substance preparation, 1 part by weight of active substance is mixed with the stated quantities of solvent and emulsifier and the concentrate is diluted to the desired concentration with water. For the testing for protective activity, young plants are sprayed with the active substance preparation at the stated application dosage. […] The plants are then moistened and placed in an incubation cabin for 1 day. 6 days after the inoculation, the assessment takes place.

[17] = LogPA (logP of the stated pure compound or, in a mixture, of the main isomer, 1-substituted 3-aryl-1H-pyrazole)
[18] = Fusarium proliferatum growth, OD 620, 5 days, read-out: % Inhibition des Pilzwachstums bei 50 μM
[19] = Fusarium proliferatum, 5 days at 20° C., HPLC-MS/MS, read-out: % Inhibition der FB1 produktion bei 50 μM
[20] = 72 h, read-out: % Inhibition des Pilzwachstums bei 50 μM
[21] = 168 h, read-out: % Inhibition der DON/AcDON produktion bei 50 μM
[22] = 50 μM, 7 days at 20° C., read-out: Inhibition der Aflatoxin produktion bei 50 μM
[23] = read-out: % Inhibition des Pilzwachstums bei 50 μM

Row | Compound | pest or weed control at 500 ppm [1] | pest or weed control at 500 ppm [2] | chromatographic logP [3, 17] | pest or weed control at 250 ppm [4] | inhibition at 50 µM [5, 18] | inhibition at 50 µM [5, 19] | inhibition at 50 µM [6, 20] | inhibition at 50 µM [6, 21] | inhibition at 50 µM [7, 22] | inhibition at 50 µM [7, 23] | pest or weed control at 500 ppm [8] | pest or weed control at 500 ppm [9] | pest or weed control at 250 ppm [10] | pest or weed control at 1000 ppm [11] | pest or weed control at 100 ppm [12] | pest or weed control at 1000 ppm [13] | pest or weed control at 1000 ppm [14] | pest or weed control at 1000 ppm [15] | chromatographic logP ([3]; LogPA) | pest or weed control at 100 ppm [16]
1 | Fc1cccc(F)c1-c1nn(C2CCC2)cc1-c1ccncc1 [Compound 8] | 94% | 92% | 1.56 | – | – | – | – | – | – | – | – | – | – | – | – | – | – | – | – | –
2 | CC(c1cccc(Cl)c1)n1cc(-c2ccncc2)c(-c2ccc(F)cc2)n1 (centres unmarked) [Compound 101] | – | – | 2.17 | 95% | – | – | – | – | – | – | – | – | – | – | – | – | – | – | – | –
3 | N#CCCn1cc(-c2ccncc2)c(-c2ccc(F)cc2)n1 [Compound 146] | – | – | 0.81 | – | 41% | 100% | 97% | 100% | 100% | 99% | 95% | 100% | – | – | – | – | – | – | – | –
4 | CCC(=O)Nc1cc(-c2cn(CC(C)C)nc2-c2ccc(F)cc2)ccn1 [Compound 155] | – | – | 2.51 | – | 97% | 100% | 97% | 100% | 100% | 100% | 95% | 100% | 99% | 88% | – | – | – | – | – | –
5 | CCC(C)n1cc(-c2ccnc(NC(=O)C(C)C)c2)c(-c2ccc(F)cc2)n1 (centres unmarked) [Compound 157] | – | – | 2.82 | – | – | – | 100% | 100% | – | – | 100% | 94% | 78% | 100% | 94% | 100% | 88% | – | – | –
6 | CCC(C)n1cc(-c2ccnc(NC(=O)CC3CC3)c2)c(-c2ccc(F)cc2)n1 (centres unmarked) [Compound 159] | – | – | 3 | – | – | – | 102% | 99% | – | – | 97% | 94% | 98% | 100% | 97% | 100% | 75% | – | – | –
7 | CCC(C)n1cc(-c2ccnc(NC(=O)C3CC3)c2)c(-c2ccc(F)cc2)n1 (centres unmarked) [Compound 167] | – | – | – | – | – | – | 100% | 99% | – | – | 100% | – | 100% | 100% | 89% | – | 100% | 92% | 2.56 | –
8 | CC(C)Cn1cc(-c2ccnc(NC(C)C)n2)c(-c2ccc(F)cc2)n1 [Compound 174] | – | – | – | 93% | – | – | – | – | – | – | 100% | 100% | 80% | – | 100% | 90% | – | 93% | 2.39 | 70%
9 | CC(c1cnc(Cl)s1)n1cc(-c2ccncc2)c(-c2ccc(F)cc2)n1 (centres unmarked) [Compound 176] | – | – | – | 97% | – | – | – | – | – | – | – | 100% | – | – | – | – | – | – | 1.82 | –
10 | CCn1cc(-c2ccnc(NC(=O)COC)c2)c(-c2ccc(F)cc2)n1 [Compound 203] | – | – | – | – | 99% | 100% | 100% | 100% | 100% | 100% | 95% | 93% | – | – | – | – | – | – | 2.2 | –
11 | COCCn1cc(-c2ccnc(NC(=O)Cc3ccccc3)c2)c(-c2ccc(F)cc2)n1 [Compound 212] | – | – | – | – | – | – | – | – | – | – | 96% | 95% | 98% | – | 85% | 71% | 75% | 71% | 2.6 | 83%
12 | O=C(Nc1cc(-c2cn(CC3CC3)nc2-c2ccc(F)cc2)ccn1)C1CC1 [Compound 224] | – | – | – | – | 99% | 100% | 100% | 92% | – | – | 99% | 70% | 99% | 100% | 71% | 100% | 100% | – | 2.29 | –
13 | O=C(Nc1cc(-c2cn(CC(F)F)nc2-c2ccc(F)cc2)ccn1)C1CCC1 [Compound 240] | – | – | – | – | – | – | – | – | – | – | 96% | 88% | 99% | – | 96% | 75% | 75% | – | 2.42 | 90%
